Here are results for 8 compounds from patent US11839212B2, “Synergistic pesticidal compositions and methods for delivery of insecticidal active ingredients” (0903608 B.C. Ltd., priority 2018, dated 2023).

Where two headings read alike, the source gives them in different places.

Holding throughout (assay): Synergistic Growth Inhibition Assay (MIC and FIC index, 96-well, resazurin)
Holding throughout (type): cell-based
(In general: Alamar Blue is a resazurin reagent that responds to reducing activity.)

Test [1] relates to Fusarium oxysporum. To be noted: for MIC: Fusarium oxysporum. The method, then:
(§1) In some embodiments, the synergistic action between the pesticidal active ingredient, and the at least one C6-C10 (or alternatively C11 or C12) saturated or unsaturated aliphatic acid components of the pesticidal compositions according to embodiments of the present disclosure was tested using a Synergistic Growth Inhibition Assay, which is derived from and related to a checkerboard assay as is known in the art for testing of combinations of antimicrobial agents. In the Synergistic Growth Inhibition Assay used in accordance with some embodiments of the present disclosure, multiple dilutions of combinations of pesticidal active ingredient and at least one C6-C10 saturated or unsaturated aliphatic acid agents are tested in individual cells for inhibitory activity against a target pest or pathogenic organism. In one such embodiment, the combinations of pesticidal active ingredient and C6-C10 (or alternatively C11 or C12) saturated or unsaturated aliphatic acid agents may preferably be tested in decreasing concentrations. In a further such embodiment, the combinations of pesticidal active ingredient and C6-C10 (or alternatively C11 or C12) saturated or unsaturated aliphatic acid agents may be tested in increasing concentrations. These multiple combinations of the pesticidal active ingredient and at least one C6-C10 (or alternatively C11 or C12) saturated or unsaturated aliphatic acid agents may be prepared in 96-well microtiter plates. In one such embodiment, the Synergistic Growth Inhibition Assay then comprises rows which each contain progressively decreasing concentrations of the pesticidal active ingredient and one or more C6-C10 (or alternatively C11 or C12) saturated or unsaturated aliphatic acid agents to test for the MIC of the agents in combination at which growth of the target pest or pathogen is inhibited. Thus, each well of the microtiter plate is a unique combination of the two agents, at which inhibitory efficacy of the combination against the target pest or pathogen can be determined.
(§2) In one embodiment according to the present disclosure, for each row of microtiter cells in the Synergistic Growth Inhibition Assay, the FIC index is calculated from the lowest concentration of the pesticidal active ingredient and one or more C6-C10 saturated or unsaturated aliphatic acid agents necessary to inhibit growth of a target pest or pathogen. The FIC of each component is derived by dividing the concentration of the agent present in that well of the microtiter plate by the minimal inhibitory concentration (MIC) needed of that agent alone to inhibit growth of the target pest or pathogen. The FIC index is then the sum of these values for both agents in that well of the microtiter plate. […] Fractional inhibitory concentration indices may then used as measure of synergy. […] When the FIC index is equal to 1, the combination is additive.
(§3) Then, serial dilutions of these initial compositions in successive wells in the row of the microtiter plate were used to assay the pesticidal composition under the same conditions to determine the concentration of the composition combining the two agents corresponding to the microtiter well in which growth inhibition of the target pest or organism ceases.
Resazurin dye (also known as Alamar blue dye) was used as an indicator to determine the presence of growth or inhibition of growth of Fusarium oxysporum in the wells of the 96 well microtiter plates used in the exemplary Synergistic Growth Inhibition Assay. In addition to the color change of the resazurin dye in the presence of growth of the Fusarium oxysporum, an optical or visual examination of the microtiter well may also be made to additionally determine the presence of growth or inhibition of growth of the Fusarium oxysporum.

Test [2] has as its system Sclerotinia sclerotiorum. To be noted: for MIC: Sclerotinia sclerotiorum. The method, then:
as §1, §2, §3
Similarly to as described above, Resazurin was used as an indicator of growth or inhibition of growth of Sclerotinia sclerotiorum in the exemplary Synergistic Growth Inhibition Assay. In addition to the color change of the resazurin, an optical or visual examination of the microtiter well may also be made to additionally determine the presence of growth or inhibition of growth of the Sclerotinia sclerotiorum.

In test [3] the test system is Botrytis cinerea. To be noted: for MIC: Botrytis cinerea, 48 h. As to the method:
as §1, §2, §3
Similarly to as described above, Resazurin was used as an indicator of growth or inhibition of growth of Botrytis cinerea in the exemplary Synergistic Growth Inhibition Assay. In addition to the color change of the resazurin, an optical or visual examination of the microtiter well may also be made to additionally determine the presence of growth or inhibition of growth of the Botrytis cinerea.

Setting [4] is: 48 h, Table 15B, Compound A alone, incubation 48 hours, read-out: MIC (A).
Where [5] appears, read: Table 20B, Compound A alone, incubation 7 days, read-out: MIC (A).
[6] abbreviates: Table 23, Compound A alone, incubation 48 hours, read-out: MIC (A).
The mark [7] stands for this setting: Table 56, Compound B alone, 48 hours incubation, read-out: MIC (B).

With `COC(=O)N(OC)c1ccccc1COc1ccn(-c2ccc(Cl)cc2)n1` [Pyraclostrobin, pyraclostrobin, reference compound], the minimal inhibitory concentration (MIC) (commonly the lowest concentration that inhibits growth of the organism) in test [1] (24 h, Table 1, Compound A alone, 24 hour incubation, read-out: MIC(A)) amounted to 15.4 µg/mL; in test [1] (48 h, Table 10, Compound A alone, incubation 48 hours, read-out: MIC (A)), 15 µg/mL; in test [1] (setting [4]), 15 µg/mL; in test [1] (48 h, Table 27, Compound A alone, 48 hours incubation, read-out: MIC (A)), 15 µg/mL; in test [2] (Table 16, Compound A alone, incubation 7 days, read-out: MIC (A)), 7.5 µg/mL; in test [2] (setting [5]), 3.75 µg/mL. Moreover, the MIC amounted to 7.5 µg/mL in test [2] (Table 33, Compound A alone, 7 days incubation, read-out: MIC (A)); 3.75 µg/mL in test [2] (Table 34, Compound A alone, 7 days incubation, read-out: MIC (A)); 1.9 µg/mL in test [3] (Table 21, Compound A alone, incubation 48 hours, read-out: MIC (A)); 3.75 µg/mL in test [3] (setting [6]); 1.88 µg/mL in test [3] (Table 43, Compound A alone, 48 hours incubation, read-out: MIC (A)); 1.88 µg/mL in test [3] (Table 44, Compound A alone, 48 hours incubation, read-out: MIC (A)).
Turning to `N#Cc1c(Cl)c(Cl)c(Cl)c(C#N)c1Cl` [Chlorothalonil, reference compound], the MIC amounted to 0.125 µg/mL in test [1] (48 h, Table 12, Compound A alone, incubation 48 hours, read-out: MIC (A)); 0.0312 µg/mL in test [2] (setting [5]); 0.0312 µg/mL in test [2] (Table 36, Compound A alone, 7 days incubation, read-out: MIC (A)); 0.0176 µg/mL in test [3] (Table 46, Compound A alone, 48 hours incubation, read-out: MIC (A)).
Regarding `CCCCCCCC(O)CC(=O)O` (centres unmarked) [3-Hydroxydecanoic acid, 3-hydroxydecanoic acid], the MIC in test [1] (48 h, Table 10, Compound B alone, incubation 48 hours, read-out: MIC (B)) turned out to be 250 µg/mL; in test [1] (48 h, Table 12, Compound B alone, incubation 48 hours, read-out: MIC (B)) it was 250 µg/mL; in test [1] (48 h, Table 13, Compound B alone, incubation 48 hours, read-out: MIC (B)), 250 µg/mL; in test [1] (48 h, Table 15B, Compound B alone, incubation 48 hours, read-out: MIC (B)) it was 250 µg/mL; in test [2] (Table 16, Compound B alone, incubation 7 days, read-out: MIC (B)) it was 125 µg/mL; in test [2] (Table 20B, Compound B alone, incubation 7 days, read-out: MIC (B)), 62.5 µg/mL. For the same compound, the MIC was found to be 62.5 µg/mL in test [3] (Table 51, Compound B alone, 48 hours incubation, read-out: MIC (B)); 125 µg/mL in test [3] (setting [7]); 125 µg/mL in test [3] (Table 59, Compound B alone, 48 hours incubation, read-out: MIC (B)).
On to `N#Cc1c[nH]cc1-c1cccc2c1OC(F)(F)O2` [Fludioxonil, fludioxonil, reference compound], for which the MIC was 0.481 µg/mL in test [1] (24 h, read-out: MIC (A), Table 2, Compound A alone, 24 hour incubation); 0.241 µg/mL in test [1] (24 h, read-out: MIC (A), Table 3, Compound A alone, 24 hour incubation); 0.481 µg/mL in test [1] (24 h, read-out: MIC(A), Table 7, Compound A alone, 24 hour incubation); 21 µg/mL in test [1] (48 h, read-out: MIC (A), Table 13, Compound A alone, incubation 48 hours); 21 µg/mL in test [1] (48 h, read-out: MIC (A), Table 15B, Compound A alone, incubation 48 hours); 21 µg/mL in test [1] (48 h, read-out: MIC (A), Table 29, Compound A alone, 48 hours incubation). For the same compound, the MIC in test [1] (read-out: MIC (A), Table 8, Compound A alone) worked out at 0.481 µg/mL; in test [2] (read-out: MIC (A), Table 37, Compound A alone, 7 days incubation), 0.164 µg/mL.
Turning to `CO/C=C(/C(=O)OC)c1ccccc1Oc1cc(Oc2ccccc2C#N)ncn1` [Azoxystrobin, reference compound], the “MIC (A)” value in test [1] (Table 11, Compound A alone, incubation 48 hours) is 75 µg/mL; in test [1] (Table 15B, Compound A alone, incubation 48 hours), 150 µg/mL; in test [1] (Table 28, Compound A alone, 48 hours incubation), 150 µg/mL; in test [2] (Table 17, Compound A alone, incubation 7 days), 150 µg/mL; in test [2] (Table 20B, Compound A alone, incubation 7 days) it was 75 µg/mL; in test [2] (Table 35, Compound A alone, 7 days incubation), 150 µg/mL. Moreover, the “MIC (A)” value in test [3] (Table 23, Compound A alone, incubation 48 hours) worked out at 75 µg/mL; in test [3] (Table 45, Compound A alone, 48 hours incubation) it was 75 µg/mL.
For the compound `CC1COC(Cn2cncn2)(c2ccc(Oc3ccc(Cl)cc3)cc2Cl)O1` (centres unmarked) [Difenoconazole, reference compound], the MIC in test [1] (48 h, Table 14, Compound A alone, incubation 48 hours, read-out: MIC (A)) stood at 51 µg/mL; in test [1] (setting [4]), 51 µg/mL; in test [1] (48 h, Table 30, Compound A alone, 48 hours incubation, read-out: MIC (A)), 51 µg/mL; in test [2] (Table 20A, Compound A alone, incubation 7 days, read-out: MIC (A)), 12.8 µg/mL; in test [2] (setting [5]) it was 25.5 µg/mL; in test [2] (Table 38, Compound A alone, 7 days incubation, read-out: MIC (A)), 25.5 µg/mL. In addition, the MIC in test [3] (Table 24, Compound A alone, 48 hours incubation, read-out: MIC (A)) worked out at 51 µg/mL.
In the case of `CCC/C=C/C(=O)O` [Trans-2-hexenoic acid, trans-2-hexenoic acid], the MIC in test [1] (24 h, Table 1, Compound B alone, 24 hour incubation, read-out: MIC(B)) was determined as 312 µg/mL; in test [1] (24 h, Table 2, Compound B alone, 24 hour incubation, read-out: MIC (B)), 312 µg/mL; in test [2] (Table 33, Compound B alone, 7 days incubation, read-out: MIC (B)) it was 156 µg/mL; in test [3] (Table 43, Compound B alone, 48 hours incubation, read-out: MIC (B)), 78.1 µg/mL; in test [3] (Table 44, Compound B alone, 48 hours incubation, read-out: MIC (B)), 39.1 µg/mL; in test [3] (Table 45, Compound B alone, 48 hours incubation, read-out: MIC (B)), 156 µg/mL. Moreover, the minimal inhibitory concentration (MIC) in test [3] (Table 52, Compound B alone, 48 hours incubation, read-out: MIC(B)) came to 156 µg/mL; in test [3] (setting [7]) it was 312 µg/mL.
Turning to `Fc1ccc([C@]2(Cn3cncn3)O[C@H]2c2ccccc2Cl)cc1` (racemic) [Epoxiconazole, reference compound], the MIC in test [1] (48 h, Table 31, Compound A alone, 48 hours incubation, read-out: MIC (A)) was 30 µg/mL; in test [2] (Table 19, Compound A alone, incubation 7 days, read-out: MIC (A)), 30 µg/mL; in test [2] (setting [5]), 30 µg/mL; in test [2] (Table 40, Compound A alone, 7 days incubation, read-out: MIC (A)), 30 µg/mL; in test [3] (setting [6]), 30 µg/mL; in test [3] (Table 49, Compound A alone, 48 hours incubation, read-out: MIC (A)) it was 30 µg/mL.
